Common to all, as to format: cell-based, human
Series [1] is described as follows: Cell viability test (CCK-8) of dKLA-conjugated alanine-substituted peptides. The protocol: (§1) THP-1 monocytes were differentiated into macrophages (M0) by 24 h incubation with 100 nM phorbol 12-myristate 13-acetate (PMA, Sigma) followed by 24 h incubation in RPMI medium (Invitrogen). Macrophages were polarized in M1 macrophages (M1) by incubation with 20 ng/ml of IFN-γ (Prospec) and 100ng/m1 of LPS (Sigma). Macrophage M2 polarization(M2) was obtained by incubation with 20 ng/ml of interleukin (IL) 4 (Prospec) and 20 ng/ml of interleukin 13 (Pro spec).
(§2) Polarized cells were treated with 1.5 μM MpepK, A12K, A14K, A17K, A18K, A22K, A25K or A26K peptides for 1 hour and further incubated in RPMI1640 growth medium for 24 hours. Cell viability was analyzed using the CCK-8 assay: CCK-8 reagent (Enzo Life Sciences) was added to each well; incubation was continued for 2 hours, and absorbance was measured at 450 nm with a microplate reader (Molecular Devices).
(§3) THP-1 cells (1×10^4 cells/well) were differentiated into macrophages with 100 nM PMA (MO) for 24 h and polarized into classical M1 macrophages by treatment of IFN-γ (20 ng/ml) and LPS (100 ng/ml) and LPS-stimulated macrophages (LPS-M1) were induced by LPS (1 m/ml) treatment for 24h. Cells were treated with 1.5 μM of A26K for 1 hour and further incubated in RPMI1640 growth medium for 24 hours. Cell viability was analyzed using the CCK-8 assay. CCK-8 reagent was added to each well and incubated for 1.5-2 hours. Absorbance was measured at 450 nm with a microplate reader.

The test system of series [2] is M1 macrophages. The description is as above. The following applies: 1.5 μM, 1 hour then 24 hours, CCK-8, compared to control M1 macrophage. The protocol: as §1, §2, §3
Series [3] in a line: Cytotoxicity in in vitro sepsis model (CCK-8). The following applies: compared to control, read-out: inhibition (cytotoxic effect) in LPS-M1 macrophages. The protocol: as §3
In series [4] the test system is LPS-M1 macrophages. Kind of series: Expression of pro-inflammatory genes in in vitro sepsis model (real-time quantitative PCR). The following applies: 1.5 μM for 1 h, compared to LPS-M1 macrophages. The protocol:
THP-1 cells (2×10^5 cells/well) were differentiated into macrophages with 100 nM PMA (MO) for 24h and polarized into classical M1 macrophages by treatment of IFN-γ (20 ng/ml) and LPS (100 ng/ml) and LPS-M1 macrophages were induced by LPS (1 m/ml) treatment for 2 h. Polarized cells were treated with 1.5 μM of A26K for 1 hour and further incubated in RPMI1640 growth medium for 24 hours. Expression levels of pro-inflammatory genes (IL-8, TNF-α, NF-kB, IL-1(3 and CXCL10) were quantified by real-time quantitative PCR.

`CC[C@H](C)[C@H](NC(=O)[C@H](CC(C)C)NC(=O)[C@H](C)NC(=O)[C@@H]1CCCN1C(=O)[C@H](CC(C)C)NC(=O)CNC(=O)[C@@H](NC(=O)[C@@H](NC(=O)[C@H](CC(C)C)NC(=O)[C@@H](NC(C)=O)C(C)C)[C@@H](C)O)[C@@H](C)O)C(=O)N[C@@H](CO)C(=O)N[C@@H](Cc1c[nH]c2ccccc12)C(=O)N[C@H](C(=O)N[C@@H](CCCCN)C(=O)N[C@@H](CCCNC(=N)N)C(=O)N[C@@H](CCCCN)C(=O)N[C@@H](CCCNC(=N)N)C(=O)N[C@@H](CCC(N)=O)C(=O)N[C@@H](C)C(=O)NCC(=O)NCC(=O)NCC(=O)NCC(=O)N[C@@H](CO)C(=O)N[C@H](CCCCN)C(=O)N[C@H](CC(C)C)C(=O)N[C@H](C)C(=O)N[C@H](CCCCN)C(=O)N[C@H](CC(C)C)C(=O)N[C@H](C)C(=O)N[C@H](CCCCN)C(=O)N[C@H](CCCCN)C(=O)N[C@H](CC(C)C)C(=O)N[C@H](C)C(=O)N[C@H](CCCCN)C(=O)N[C@H](CC(C)C)C(=O)N[C@H](C)C(=O)N[C@H](CCCCN)C(=O)O)[C@@H](C)CC` [A26K]: the cytotoxicity in series [1] (1.5 μM, compared to control, read-out: inhibition of viability in M1 macrophages) was 53%. Moreover, the IC50 (usually the concentration that gives 50% inhibition) in series [1] (0.01-10 μM, read-out: cytotoxicity IC50 in M1 macrophages) was 1.19 µM. Also, the “cytotoxic effect in M1 macrophages” value in series [2] was “great significant selective cytotoxic effect”. Also, the inhibition (commonly the percentage by which the read-out fell short of the control) at 1.5 µM in series [3] was found to be 37%. Also, the “expression levels of IL8, TNF-α, IL-1β, NF-kB and CXCL10 enhanced by LPS stimulation” value in series [4] was “significantly inhibited”.

(Values after patent US20220354957A1, “PEPTIDES TARGETING MACROPHAGES, AND CONJUGATES, COMPOSITIONS, AND USES THEREOF” (Twinpig Biolab, Inc., priority 2021, published 2022).)
